Measured values as given in patent publication US20170328922A1, “METHODS AND PRODUCTS FOR LABELLING LIPIDS” (UNIVERSITY OF SOUTH AUSTRALIA, priority 2014, published 2017).

Tests used:
[1] = Rhenium molecular probe-lipid overlay (dot blot); assay type: binding; set-up: key to interaction with Cholestrol (dot blot): ✓ indicates a positive interaction; x indicates no interaction; conditions: for interaction with Cholestrol (dot blot): 10 μM probe, 50 μM lipid on PVDF membrane; for affinity towards cholesterol, in words: FIG. 7 / FIG. 8
Method: (§1) The experimental protocol probe-lipid overlay was as follows: 50 μM of each lipids was loaded on to PVDF membranes (Perkin Elmer, USA), which were then incubated with molecular probes. PhenCyano and PhenPyridyl were assessed against eleven lipids including; sphingomyelin (Cat # S0756, Sigma Aldrich, USA), sphingosine (Cat # S7049; Sigma Aldrich, USA), L-phosphatidylethanolamine (Cat # P7943, Sigma Aldrich, USA), monosialodanglioside (GM1; Cat # G7641, Sigma Aldrich, USA), oleoly-L-?-lysophosphatidic acid (Cat # L7260, Sigma Aldrich, USA), palmitic acid (Cat # P5917, Sigma Aldrich, USA), sphingomyelin (Cat # S0756, Sigma Aldrich, USA), sphingosine (Cat # S7049; Sigma Aldrich, USA), L-?-phosphatidylethanolamine (Cat # P7943, Sigma Aldrich, USA), monosialodanglioside (GM1; Cat # G7641, Sigma Aldrich, USA), progesterone (Cat #102722, MP Biomedical, USA), ceramide (Cat # C2137; Sigma Aldrich, USA), triacylglycerol mix C2-C10 (Cat #17810, Sigma Aldrich, USA) and cholesteryl acetate (Cat #151114; Sigma Aldrich, USA).
(§2) All other molecular probes were assessed against a panel of six lipids including; sphingomyelin (Cat # S0756, Sigma Aldrich, USA), sphingosine (Cat # S7049; Sigma Aldrich, USA), L-?-phosphatidylethanolamine (Cat # P7943, Sigma Aldrich, USA), monosialodanglioside (GM1; Cat # G7641, Sigma Aldrich, USA), sphingomyelin (Cat # S0756, Sigma Aldrich, USA), sphingosine (Cat # S7049; Sigma Aldrich, USA), L-?-phosphatidylethanolamine (Cat # P7943, Sigma Aldrich, USA), monosialodanglioside (GM1; Cat # G7641, Sigma Aldrich, USA) and triacylglycerol mix C2-C10 (Cat #17810, Sigma Aldrich, USA).
(§3) Lipids were dissolved in ethanol, methanol or isopropanol for loading depending on solubility. Following lipid loading, membranes were left to dry for 20-30 minutes, then they were washed for 10 minutes in cold 10% ethanol, before they were incubated with 10 μM solution of each Rhenium molecular probe in cold 10% ethanol for one hour. Membranes were than washed four times for 10 minutes in cold 10% ethanol prior to imaging. Imaging was performed on an Image Quant Las 4000 (GE, Sweden) luminescent image analyser, with the Rhenium molecular probe being detected by excitation at 460 nm using an epi-blue light source, and detected using an 575 nm ethidium bromide filter.

[2] = Rhenium molecular probe-lipid overlay (dot blot); assay type: binding; set-up: key to interaction with Triglycerides (dot blot): ✓ indicates a positive interaction; x indicates no interaction; conditions: for interaction with Triglycerides (dot blot): 10 μM probe, 50 μM lipid on PVDF membrane; for interaction with triglycerides, in words: FIG. 7 / FIG. 8
Method: as §1, §2, §3

[3] = Rhenium molecular probe-lipid overlay (dot blot); assay type: binding; set-up: key to interaction with Sphingomyline (dot blot): ✓ indicates a positive interaction; x indicates no interaction; conditions: for interaction with Sphingomyline (dot blot): 10 μM probe, 50 μM lipid on PVDF membrane; for affinity towards sphingomyelin, in words: FIG. 7 / FIG. 8
Method: as §1, §2, §3

[4] = Rhenium molecular probe-lipid overlay (dot blot); assay type: binding; set-up: key to interaction with PE (dot blot): ✓ indicates a positive interaction; x indicates no interaction; conditions: for interaction with PE (dot blot): 10 μM probe, 50 μM lipid on PVDF membrane; for affinity towards phosphatidylethanolamine (PE), in words: FIG. 7 / FIG. 8
Method: as §1, §2, §3

[5] = Rhenium molecular probe-lipid overlay (dot blot); assay type: binding; set-up: key to interaction with GM1 (dot blot): ✓ indicates a positive interaction; x indicates no interaction; conditions: for interaction with GM1 (dot blot): 10 μM probe, 50 μM lipid on PVDF membrane; for affinity towards monosialotetrahexosylganglioside (GM1), in words: FIG. 7 / FIG. 8
Method: as §1, §2, §3

[6] = Rhenium molecular probe-lipid overlay (dot blot); assay type: binding; set-up: key to interaction with Sphingosine (dot blot): ✓ indicates a positive interaction; x indicates no interaction; conditions: for interaction with Sphingosine (dot blot): 10 μM probe, 50 μM lipid on PVDF membrane; for affinity towards sphingosine, in words: FIG. 7 / FIG. 8
Method: as §1, §2, §3

3T3 L1 cells = experiment: Live cell staining with rhenium molecular probes; assay type: cell-based; conditions: live samples, 10-20 μM probe
Method: (§4) Probes were dissolved in DMSO to obtain a stock solution with a concentration of 10 mM. Stock solutions were stored at room temperature in a dark place. Working solutions were prepared only at the time of use as the probe has reduced solubility in aqueous solutions. A Working solution was a dilution 1/1000 to 1/500 of the stock in DMSO to PBS or cell medium, and as such the percentage of DMSO used in actual cell experiments was less than 1%.
(§5) For tissues, the tissues were isolated in PBS (or other physiological media) and mounted on a coverslip. For cells, these were grown as per normal practice on coverslips.
(§6) The media was removed media and replaced with 10-20 μM solution of molecular probes in PBS (or appropriate physiological media/cell media) at a dilution of stock solution from 1/1000-1/500, for 15-30 minutes at physiologically appropriate temperature (37° C. for cell culture or 25° C. for insect larvae). […] If foetal calf serum is necessary for cell health, an increased incubation time may be necessary to obtain adequate staining.
The samples were washed for one minute in PBS. […]
Micrographs of 3T3 L1, 453 cells and CHOK1 cells and Drosophila fat body tissue stained with rhenium molecular probes, PhenCyan top, PhenPyridyl bottom are shown in FIG. 10. […] Left: confocal images; Right: fluorescence microscopy images.

[7] = Rhenium molecular probe-lipid overlay (dot blot); assay type: binding; conditions: FIG. 7
Method: as §1
Lipids were dissolved in ethanol, methanol or isopropanol for loading depending on solubility. […] Imaging was performed on an Image Quant Las 4000 (GE, Sweden) luminescent image analyser, with the Rhenium molecular probe being detected by excitation at 460 nm using an epi-blue light source, and detected using an 575 nm ethidium bromide filter.

[8] = tested on: Drosophila fat body cells; experiment: Live tissue staining with rhenium molecular probes (Examples 10, 13); assay type: cell-based; conditions: live samples, 10-20 μM probe
Method: as §4, §5, §6
The samples were washed for one minute in PBS. If co-staining was performed, the samples were washed in PBS for 30 seconds, before incubating with counterstain.
Tissues were mounted in optical coupling gel, such as carbomer-940 (Snowdrift farm, Tucson, USA) based gel to prevent dehydration prior to imaging and maintain tissue integrate (Rothstein, E. C., Nauman, M., Chesnick S., Balaban R. S., 2006, Multi-photon excitation microscopy in intact animals Journal of Microscopy 222, 58, 64). For cells, the coverslip was mounted in PBS for immediate imaging.
Samples were imaged immediately following staining.
Rhenium molecular probes were? excited at 800-830 nm using a two-photon pulse laser or 405 steady state laser and detection in the range of 490-670 nm, with an emission maxima at around 570.
Micrographs of 3T3 L1, 453 cells and CHOK1 cells and Drosophila fat body tissue stained with rhenium molecular probes, PhenCyan top, PhenPyridyl bottom are shown in FIG. 10. […] Left: confocal images; Right: fluorescence microscopy images. […]

[9] = Rhenium molecular probe-lipid overlay (dot blot); assay type: binding; conditions: FIG. 7
Method: as §1, §3

[10] = Rhenium molecular probe-lipid overlay (dot blot); assay type: binding; conditions: FIG. 7
Method: as §1, §3

[11] = Rhenium molecular probe-lipid overlay (dot blot); assay type: binding; set-up: key to interaction with Cholestryl acetate (dot blot): ✓ indicates a positive interaction; x indicates no interaction
Method: as §1, §3

[12] = Rhenium molecular probe-lipid overlay (dot blot); assay type: binding; set-up: key to interaction with Lysophosphatidic acid (dot blot): ✓ indicates a positive interaction; x indicates no interaction
Method: as §1, §3

[13] = tested on: Drosophila fat body tissue; experiment: Live staining and confocal imaging of explanted fat body tissue; assay type: cell-based; conditions: fixed fat body, nutrient deprivation/starvation conditions
Method: All stocks were maintained in standard medium at 25° C. The yeast GAL4-UAS system was used for targeted gene expression (Brand and Perrimon, 1993). Fat-body specific expression of transgenes from the UAS were driven by CG-GAL4 (Asha et al., 2003). Transgenic UAS-Atg9RNAi stocks (#34901) and UAS-TorTED stocks (#7013) were obtained from the Bloomington Drosophila Stock Centre (Indiana University, IN, USA). Atg8aGFP was driven by an endogenous promoter (Kelso et al., 2004).
Bromophenol-blue was added to the fly media and used to define different developmental time points. […] Newly formed white pupae (0 h PF), were isolated onto moist filter paper and incubated at 25° C. for either two hours (+2 h PF) or four hours (+4 h PF).
Third instar larvae at −8 h PF were removed from standard media (normally feeding at this developmental stage) and placed on filter paper either soaked in 5% (w/v) sucrose (for amino acid deprivation), or 5% (w/v) tryptone pancreatic digest of casein (BD Bioscience USA; for carbohydrate deprivation), or soaked in water (for complete starvation). Larvae were incubated for 4-5 hours prior tissue isolation and imaging.
Fat body tissue was dissected into PBS from Drosophila larvae or pupae. The fat body tissue was either incubated with 10 μM tricarbonyl phenanthrolin (4-cyanophenyltretrazolato) Rhenium (I) in PBS for 15 minutes at room temperature, or LysoTracker® green (according to manufacturer instructions; Invitrogen, USA) and then mounted in carbomer-940 (Snowdrift farm, Tucson, USA) based optical coupling gel to prevent dehydration prior to imaging (Rothstein et al., 2006). For Oil Red O staining, fat body tissue was fixed in 4% (v/v) paraformaldehyde for 20 minutes, and incubated in 1/100 Oil Red 0 for 30 minutes and then washed in PBS before mounting in 80% glycerol.
A Ziess LSM710 META NLO confocal microscope (Zeiss, Germany), supplemented with a two-photon Mai-Tai® (tunable Ti:Sapphire femtosecond pulse laser, 710-920 nm, Spectra-Physics, Australia) was used for imaging. The images were acquired using a Plan-APOCHROMAT 63×/NA1.4 oil immersion objective. The Rhenium probe was excited at 830 nm using the two-photon pulse laser and detect at 600-654 nm. LysoTracker® green was imaged by excitation at 488 nm and detected at 497-558 nm. Atg8a-GFP was imaged with the Rhenium probe by excitation at 830 nm and resolved using spectral un-mixing using the Zen software package (based on spectral figure-printing of the two components). The Rhenium probe images and co-location analysis involved at least five separate images from five independent biological replicates, and one representative image from each treatment was selected for presentation (containing a minimum of 2 cells). For image quantification, two regions of interest (ROI) were selected at random with an area of 2500 μm^2 and the number of fluorescent puncta within the area counted, to give a minimum of 10 counts per treatment group. Comparison of means was performed by ANOVA with a Tukey post hoc tested in GraphPad Prism V.6.01 (USA).

[14] = 10 μM probe, 50 μM lipid on PVDF membrane

facial-Tricarbonyl (η^1(N2)-5- cyanophen-4′-yl tetrazolato) η^2-2,2′- bipyridine Rhenium(I) [BiphenCyano]
varying affinity: affinity towards cholesterol, in words [1] | affinity towards sphingomyelin, in words [3] | affinity towards phosphatidylethanolamine (PE), in words [4] | affinity towards monosialotetrahexosylganglioside (GM1), in words [5] | affinity towards sphingosine, in words [6]
x: interaction with Triglycerides (dot blot) [2]
✓: interaction with Cholestrol (dot blot) [1] | interaction with Sphingomyline (dot blot) [3] | interaction with PE (dot blot) [4] | interaction with GM1 (dot blot) [5] | interaction with Sphingosine (dot blot) [6]

O=[C]=[Re](=[C]=O)(=[C]=O)[n]1nnc(-c2cccnc2)n1.c1cnc2c(c1)ccc1cccnc12 [PhenPyridyl, Triscarbonyl phenanthroline (3-pyridyltetrazolato)Rhenium(I)]
x: interaction with Cholestryl acetate (dot blot) [11, 14]
✓: interaction with Sphingomyline (dot blot) [3] | interaction with PE (dot blot) [4] | interaction with GM1 (dot blot) [5] | interaction with Lysophosphatidic acid (dot blot) [12, 14]
limited to no lipid droplet staining: staining pattern in 3T3 L1 cells (3T3 L1 cells) | staining pattern in Drosophila fat body cells [8]
no interaction detected: interaction with fatty acid (palmitic acid), in words [7] | interaction with ceramide, in words [9] | interaction with triglycerides, in words [2] | interaction with cholesterol ester (cholesteryl acetate), in words ([11]; FIG. 7)
some affinity: affinity towards cholesterol, in words [1] | affinity towards sphingomyelin, in words [3] | affinity towards phosphatidylethanolamine (PE), in words [4] | affinity towards progesterone, in words [10] | affinity towards monosialotetrahexosylganglioside (GM1), in words [5] | affinity towards sphingosine, in words [6] | affinity towards lysophosphatidic acid, in words ([12]; FIG. 7)

facial-Tricarbonyl (η^1(N2)-5-(methyl bcnzoate-4′-yl tetrazolato) η^2-2,2′- bipyridine Rhenium(I) [BiphenEster]
appeared to interact: interaction with triglycerides, in words [2]
✓: interaction with Triglycerides (dot blot) [2] | interaction with Sphingomyline (dot blot) [3] | interaction with PE (dot blot) [4] | interaction with GM1 (dot blot) [5]
varying affinity: affinity towards cholesterol, in words [1] | affinity towards sphingomyelin, in words [3] | affinity towards phosphatidylethanolamine (PE), in words [4] | affinity towards monosialotetrahexosylganglioside (GM1), in words [5] | affinity towards sphingosine, in words [6]

Cc1ccc(C)c(N=Nc2cc(C)c(N=Nc3c(O)ccc4ccccc34)cc2C)c1 [oil red, reference compound]
did not appear to colocalise: colocalisation of staining with Atg8a-GFP [13]

COC(=O)c1ccc(-c2nn[n]([Re](=[C]=O)(=[C]=O)=[C]=O)n2)cc1.c1cnc2c(c1)ccc1cccnc12 [PhenEster]
varying affinity: affinity towards cholesterol, in words [1] | affinity towards sphingomyelin, in words [3] | affinity towards phosphatidylethanolamine (PE), in words [4] | affinity towards monosialotetrahexosylganglioside (GM1), in words [5] | affinity towards sphingosine, in words [6]
✓: interaction with Cholestrol (dot blot) [1] | interaction with Triglycerides (dot blot) [2] | interaction with Sphingomyline (dot blot) [3] | interaction with PE (dot blot) [4] | interaction with GM1 (dot blot) [5] | interaction with Sphingosine (dot blot) [6]
appeared to interact: interaction with triglycerides, in words [2]
